In US9963464B2, “Macrocyclic compounds” (Bayer Pharma Aktiengesellschaft, priority 2014, dated 2018):
Read-outs that look alike come from different tables or passages of the source.

Columns and labels:
[1] = test system: HeLa-MaTu-ADR cells; assay: Proliferation assay HeLa-MaTu-ADR; type: cell-based, human; conditions: 4 days, crystal violet, read-out: Inhibition of HeLa-MaTu-ADR cell proliferation IC50
Procedure: (§1) Cultivated tumour cells (HeLa, human cervical tumour cells, ATCC CCL-2; NCI-H460, human non-small cell lung carcinoma cells, ATCC HTB-177; A2780, human ovarian carcinoma cells, ECACC #93112519; DU 145, hormone-independent human prostate carcinoma cells, ATCC HTB-81; HeLa-MaTu-ADR, multidrug-resistant human cervical carcinoma cells, EPO-GmbH Berlin; Caco-2, human colorectal carcinoma cells, ATCC HTB-37; B16F10, mouse melanoma cells, ATCC CRL-6475) were plated at a density of 5,000 cells/well (DU145, HeLa-MaTu-ADR), 3,000 cells/well (NCI-H460, HeLa), 2,500 cells/well (A2780), 1,500 cells/well (Caco-2), or 1,000 cells/well (B16F10) in a 96-well multititer plate in 200 μL of their respective growth medium supplemented 10% fetal calf serum. After 24 hours, the cells of one plate (zero-point plate) were stained with crystal violet (see below), while the medium of the other plates was replaced by fresh culture medium (200 μl), to which the test substances were added in various concentrations (0 μM, as well as in the range of 0.001-10 μM). The cells were incubated for 4 days in the presence of test substances. Cell proliferation was determined by staining the cells with crystal violet: the cells were fixed by adding 20 μl/measuring point of an 11% glutaric aldehyde solution for 15 minutes at room temperature. After three washing cycles of the fixed cells with water, the plates were dried at room temperature. The cells were stained by adding 100 μl/measuring point of a 0.1% crystal violet solution (pH 3.0). After three washing cycles of the stained cells with water, the plates were dried at room temperature. The dye was dissolved by adding 100 μl/measuring point of a 10% acetic acid solution. The extinction was determined by photometry at a wavelength of 595 nm. The change of cell number, in percent, was calculated by normalization of the measured values to the extinction values of the zero-point plate (=0%) and the extinction of the untreated (0 μm) cells (=100%). The IC50 values (inhibitory concentration at 50% of maximal effect) were determined by means of a 4 parameter fit. Non-adherent MOLM-13 human acute myeloid leukemia cells (DSMZ ACC 554) were seeded at a density of 5,000 cells/well in a 96-well multititer plate in 100 μL of growth medium supplemented 10% fetal calf serum. After 24 hours, cell viability of one plate (zero-point plate) was determined with the Cell Titre-Glo Luminescent Cell Viability Assay (Promega), while 50 μL of test compound containing medium was added to the wells of the other plates (final concentrations in the range of 0.001-1 μM and DMSO controls). Cell viability was assessed after 72-hour exposure with the Cell Titre-Glo Luminescent Cell Viability Assay (Promega). IC50 values (inhibitory concentration at 50% of maximal effect) were determined by means of a 4 parameter fit on measurement data which were normalized to vehicle (DMSO) treated cells (=100%) and measurement readings taken immediately before compound exposure (=0%).

[2] = molecular target: T1, CDK9/CycT1 (Homo sapiens, UniProt P50750); assay: CDK9/CycT1 high ATP kinase assay (TR-FRET, Method 1b); type: biochemical; conditions: for IC50: Method 1b, 2 mM ATP; for Selectivity high ATP CDK9 over high ATP CDK2: IC50 (high ATP CDK2)/IC50 (high ATP CDK9): Methods 1b and 2b, minimal values where CDK9 IC50 is at the assay limit
T1 construct: Recombinant full-length His-tagged human CDK9 and CycT1; His; purchased Invitrogen PV4131; host or cells: insect cells
Procedure: 1b. CDK9/CycT1 High ATP Kinase Assay
CDK9/CycT1-inhibitory activity of compounds of the present invention at a high ATP concentration after preincubation of enzyme and test compounds was quantified employing the CDK9/CycT1 TR-FRET assay as described in the following paragraphs.
Recombinant full-length His-tagged human CDK9 and CycT1, expressed in insect cells and purified by Ni-NTA affinity chromatography, were purchase from Invitrogen (Cat. No PV4131). As substrate for the kinase reaction biotinylated peptide biotin-Ttds-YISPLKSPYKISEG (C-terminus in amid form) was used which can be purchased e.g. from the company JERINI peptide technologies (Berlin, Germany). For the assay 50 nl of a 100 fold concentrated solution of the test compound in DMSO was pipetted into a black low volume 384 well microtiter plate (Greiner Bio-One, Frickenhausen, Germany), 2 μl of a solution of CDK9/CycT1 in aqueous assay buffer [50 mM Tris/HCl pH 8.0, 10 mM MgCl2, 1.0 mM dithiothreitol, 0.1 mM sodium ortho-vanadate, 0.01% (v/v) Nonidet-P40 (Sigma)] were added and the mixture was incubated for 15 min at 22° C. to allow pre-binding of the test compounds to the enzyme before the start of the kinase reaction. […] The concentration of CDK9/CycT1 was adjusted depending of the activity of the enzyme lot and was chosen appropriate to have the assay in the linear range, typical concentrations were in the range of 0.5 μg/mL. The reaction was stopped by the addition of 5 μl of a solution of TR-FRET detection reagents (0.2 μM streptavidine-XL665 [Cisbio Bioassays, Codolet, France] and 1 nM anti-RB(pSer807/pSer811)-antibody from BD Pharmingen [#558389] and 1.2 nM LANCE EU-W1024 labeled anti-mouse IgG antibody [Perkin-Elmer, product no. AD0077]) in an aqueous EDTA-solution (100 mM EDTA, 0.2% (w/v) bovine serum albumin in 100 mM HEPES pH 7.5).
The resulting mixture was incubated 1 h at 22° C. to allow the formation of complex between the phosphorylated biotinylated peptide and the detection reagents. Subsequently the amount of phosphorylated substrate was evaluated by measurement of the resonance energy transfer from the Eu-chelate to the streptavidine-XL. Therefore, the fluorescence emissions at 620 nm and 665 nm after excitation at 350 nm was measured in a HTRF reader, e.g. a Rubystar (BMG Labtechnologies, Offenburg, Germany) or a Viewlux (Perkin-Elmer). The ratio of the emissions at 665 nm and at […] was taken as the measure for the amount of phosphorylated substrate. The data were normalised (enzyme reaction without inhibitor=0% inhibition, all other assay components but no enzyme=100% inhibition).

[3] = test system: B16F10 cells; assay: Proliferation assay B16F10; type: cell-based, mouse; conditions: 4 days, crystal violet, read-out: Inhibition of B16F10 cell proliferation IC50
Procedure: as §1

[4] = test system: Caco-2 cells; assay: Proliferation assay Caco-2; type: cell-based, human; conditions: 4 days, crystal violet, read-out: Inhibition of Caco-2 cell proliferation IC50
Procedure: as §1

[5] = test system: DU145 cells; assay: Proliferation assay DU145; type: cell-based, human; conditions: 4 days, crystal violet, read-out: Inhibition of DU145 cell proliferation IC50
Procedure: as §1

[6] = test system: NCI-H460 cells; assay: Proliferation assay NCI-H460; type: cell-based, human; conditions: 4 days, crystal violet, read-out: Inhibition of NCI-H460 cell proliferation IC50
Procedure: as §1

T1 sequence (P50750 whole entry): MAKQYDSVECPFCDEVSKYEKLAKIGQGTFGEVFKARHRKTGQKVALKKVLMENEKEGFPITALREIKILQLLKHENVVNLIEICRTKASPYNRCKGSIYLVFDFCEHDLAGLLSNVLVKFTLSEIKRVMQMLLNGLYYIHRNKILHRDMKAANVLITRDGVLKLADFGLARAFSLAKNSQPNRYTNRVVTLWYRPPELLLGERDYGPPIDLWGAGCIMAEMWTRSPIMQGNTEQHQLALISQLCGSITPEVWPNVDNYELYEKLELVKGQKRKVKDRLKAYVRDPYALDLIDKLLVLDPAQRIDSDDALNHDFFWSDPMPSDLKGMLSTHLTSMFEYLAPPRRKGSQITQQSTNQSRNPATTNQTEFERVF
T1 sequence (O60563 whole entry partner): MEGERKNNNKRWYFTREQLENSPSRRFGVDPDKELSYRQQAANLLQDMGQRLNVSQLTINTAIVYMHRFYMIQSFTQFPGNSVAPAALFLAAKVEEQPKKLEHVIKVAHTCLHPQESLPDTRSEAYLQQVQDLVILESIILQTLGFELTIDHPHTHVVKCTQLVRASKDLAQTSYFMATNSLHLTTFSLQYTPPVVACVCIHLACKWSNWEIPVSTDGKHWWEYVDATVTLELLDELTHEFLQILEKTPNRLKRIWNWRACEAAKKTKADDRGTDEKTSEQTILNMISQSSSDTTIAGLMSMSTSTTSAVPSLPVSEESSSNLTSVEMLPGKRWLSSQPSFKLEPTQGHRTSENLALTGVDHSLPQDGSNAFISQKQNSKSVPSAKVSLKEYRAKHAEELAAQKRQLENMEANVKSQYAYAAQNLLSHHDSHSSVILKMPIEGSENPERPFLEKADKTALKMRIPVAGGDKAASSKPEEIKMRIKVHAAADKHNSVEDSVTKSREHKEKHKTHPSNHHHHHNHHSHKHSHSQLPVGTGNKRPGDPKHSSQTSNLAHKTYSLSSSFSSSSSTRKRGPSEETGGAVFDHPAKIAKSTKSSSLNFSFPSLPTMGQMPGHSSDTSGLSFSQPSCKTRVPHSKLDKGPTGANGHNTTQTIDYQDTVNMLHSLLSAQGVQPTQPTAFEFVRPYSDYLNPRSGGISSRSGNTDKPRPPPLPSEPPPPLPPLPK

IC50 ([1]; Homo sapiens, 96 h) [µM] | IC50 [2] [µM] | Selectivity high ATP CDK9 over high ATP CDK2: IC50 (high ATP CDK2)/IC50 (high ATP CDK9) [2] | IC50 ([3]; Mus musculus, B16-F10, 96 h) [µM] | IC50 ([4]; Homo sapiens, Caco-2, 96 h) [µM] | IC50 ([5]; Homo sapiens, DU-145, 96 h) [µM] | IC50 ([6]; Homo sapiens, NCI-H460, 96 h) [µM] | IC50 [1] [µM] | IC50 [3] [µM] | IC50 [4] [µM] | IC50 [5] [µM] | IC50 [6] [µM] | Structure (SMILES)
0.185 | 0.003 | 702 | 0.2 | 0.158 | 0.159 | 0.186 |  |  |  |  |  | CS(=N)(=O)Cc1cc2nc(c1)OCCOc1cc(F)ccc1-c1cc(ncc1F)N2 (racemic) [Example 11, (rac)-14,18-difluoro-7-[(S-methylsulfonimidoyl)methyl]-2,3-dihydro-10H-9,5-(azeno)-11,15-(metheno)-1,4,10,12-benzodioxadiazacycloheptadecine]
 | 0.0026 | 19.5 |  |  |  |  | 0.005 | 0.007 | 0.006 | 0.005 | 0.017 | CS(=N)(=O)Cc1cc2nc(c1)OCCCOc1cc(F)ccc1-c1cc(ncc1F)N2 (single isomer, unassigned; enantiomer 2) [Example 7, 15,19-Difluoro-8-[(S-methylsulfonimidoyl)methyl]-3,4-dihydro-2H,11H-10,6-(azeno)-12,16-(metheno)-1,5,11,13-benzodioxadiazacyclooctadecine; Enantiomer 2]
0.07 | 0.0046 | 28.2 | 0.081 | < 0.03 | 0.088 | 0.039 |  |  |  |  |  | CSCc1cc2nc(c1)OCCCOc1cc(F)ccc1-c1cc(ncc1F)N2 [Example 3, 15,19-Difluoro-8-[(methylsulfanyl)methyl]-3,4-dihydro-2H,11H-10,6-(azeno)-12,16-(metheno)-1,5,11,13-benzodioxadiazacyclooctadecine]
0.005 | 0.0011 | 35.4 | 0.007 | 0.005 | 0.004 | 0.014 |  |  |  |  |  | CS(=N)(=O)Cc1cc2nc(c1)OCCCOc1cc(F)ccc1-c1cc(ncc1F)N2 (single isomer, unassigned; enantiomer 1) [Example 6, 15,19-Difluoro-8-[(S-methylsulfonimidoyl)methyl]-3,4-dihydro-2H,11H-10,6-(azeno)-12,16-(metheno)-1,5,11,13-benzodioxadiazacyclooctadecine; Enantiomer 1]
0.207 | 0.0118 | 75.7 | 0.343 | 0.061 | 0.218 | 0.063 |  |  |  |  |  | CSCc1cc2nc(c1)OCCCCOc1cc(F)ccc1-c1cc(ncc1F)N2 [Example 12, 16,20-Difluoro-9-[(methylsulfanyl)methyl]-2,3,4,5-tetrahydro-12H-11,7-(azeno)-13,17-(metheno)-1,6,12,14-benzodioxadiazacyclononadecine]
0.031 | 0.0032 | 35.3 | 0.03 | 0.022 | 0.03 | 0.033 |  |  |  |  |  | C[S+]([O-])Cc1cc2nc(c1)OCCCCOc1cc(F)ccc1-c1cc(ncc1F)N2 (racemic) [Example 13, (rac)-16,20-difluoro-9-[(methylsulfinyl)methyl]-2,3,4,5-tetrahydro-12H-11,7-(azeno)-13,17-(metheno)-1,6,12,14-benzodioxadiazacyclononadecine]
0.01 | 0.0016 | 19.6 | 0.014 | 0.01 | 0.011 | 0.012 |  |  |  |  |  | C[S+]([O-])Cc1cc2nc(c1)OCCCOc1cc(F)ccc1-c1cc(ncc1F)N2 (racemic) [Example 4, (rac)-15,19-Difluoro-8-[(methylsulfinyl)methyl]-3,4-dihydro-2H,11H-10,6-(azeno)-12,16-(metheno)-1,5,11,13-benzodioxadiazacyclooctadecine]
0.009 | 0.0023 | 14.9 | 0.009 | 0.011 | 0.017 | 0.02 |  |  |  |  |  | CS(=O)(=O)Cc1cc2nc(c1)OCCCOc1cc(F)ccc1-c1cc(ncc1F)N2 [Example 8, 15,19-difluoro-8-[(methylsulfonyl)methyl]-3,4-dihydro-2H,11H-10,6-(azeno)-12,16-(metheno)-1,5,11,13-benzodioxadiazacyclooctadecine]
